Data taken from ChEMBL document CHEMBL1201862, “PubChem BioAssay data set” (2004).
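1) Cells in 96-well plates. 2) Compound, 48 h, 5 concentrations. 3) Linear interpolation between surrounding doses. 4) Unreached endpoint = highest concentration. The concentration for 50% growth inhibition is given as GI50.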 Activity calls are given as the source filed them. Rule as the data show it: active = GI50 up to about 1.1 µM and inactive = higher.

Columns and labels:
Assay in all cases: inhibition of tumour cell growth, NCI panel, 48 h
DLD-1 = system: DLD-1
DMS-114 = system: DMS-114
DMS-273 = system: DMS-273
HOP-18 = system: HOP-18
M19-MEL = system: M19-MEL
SNB-78 = system: SNB-78
XF498 = system: XF498
KM-20L2 = system: KM-20L2
RXF 631 = system: RXF 631

Nc1ccc2cc(S(=O)(=O)O)cc(O)c2c1/N=N/c1ccc(NC(=O)Nc2ccc(/N=N/c3c(N)ccc4cc(S(=O)(=O)O)cc(O)c34)c(S(=O)(=O)O)c2)cc1S(=O)(=O)O
GI50 (DLD-1): > 100 µM (inactive) | GI50 (DMS-114): 98.6 µM (inactive) | GI50 (DMS-273): > 100 µM (inactive) | GI50 (HOP-18): > 100 µM (inactive) | GI50 (M19-MEL): > 100 µM (inactive) | GI50 (SNB-78): 97.7 µM (inactive) | GI50 (XF498): > 100 µM (inactive)

COc1ccc2c(c1)[n+]([O-])c(C(C)=O)c(C)[n+]2[O-]
GI50 (DLD-1): > 100 µM (inactive) | GI50 (DMS-114): > 100 µM (inactive) | GI50 (HOP-18): > 100 µM (inactive) | GI50 (M19-MEL): > 100 µM (inactive) | GI50 (SNB-78): > 100 µM (inactive) | GI50 (XF498): > 100 µM (inactive)

N/C(=N\O)N/N=C/c1cc2c(cc1Cl)OCO2
GI50 (DLD-1): 42.8 µM (inactive) | GI50 (DMS-114): > 100 µM (inactive) | GI50 (DMS-273): 18.6 µM (inactive) | GI50 (HOP-18): 56.2 µM (inactive) | GI50 (KM-20L2): 35.8 µM (inactive) | GI50 (M19-MEL): > 56.9 µM (inactive) | GI50 (SNB-78): > 68.2 µM (inactive)

O=C(CCCN1CCC(C(O)c2ccc(F)cc2)CC1)c1ccc(F)cc1 (centres undefined)
GI50 (DLD-1): 51.8 µM (inactive) | GI50 (DMS-114): 49.7 µM (inactive) | GI50 (DMS-273): 63.5 µM (inactive) | GI50 (HOP-18): 66.8 µM (inactive) | GI50 (KM-20L2): 41.7 µM (inactive) | GI50 (M19-MEL): 59.6 µM (inactive) | GI50 (SNB-78): 56.9 µM (inactive) | GI50 (XF498): 4.46 µM (inactive)

CO/C(=N\N=Cc1ccccc1)c1ccncc1
GI50 (DLD-1): > 100 µM (inactive) | GI50 (DMS-114): > 100 µM (inactive) | GI50 (DMS-273): > 100 µM (inactive) | GI50 (KM-20L2): > 100 µM (inactive) | GI50 (M19-MEL): > 100 µM (inactive) | GI50 (SNB-78): > 100 µM (inactive) | GI50 (XF498): 47.5 µM (inactive)

CCCCCCC1NN(C(C)=O)C(CCCCCC)NN1C(C)=O (centres undefined)
GI50 (DLD-1): 52.1 µM (inactive) | GI50 (DMS-273): > 100 µM (inactive) | GI50 (HOP-18): > 100 µM (inactive) | GI50 (KM-20L2): > 100 µM (inactive) | GI50 (M19-MEL): > 100 µM (inactive)

Clc1ccc(OC2CCO2)cc1Cl (centres undefined)
GI50 (DLD-1): 85.9 µM (inactive) | GI50 (DMS-114): 34.4 µM (inactive) | GI50 (DMS-273): 63.1 µM (inactive) | GI50 (HOP-18): > 100 µM (inactive) | GI50 (KM-20L2): 76.4 µM (inactive) | GI50 (M19-MEL): > 100 µM (inactive) | GI50 (RXF 631): 25.1 µM (inactive) | GI50 (SNB-78): > 100 µM (inactive)

COc1ccc2c(c1)OC[C@@H]1c3cc(O)c(OCc4ccccc4)cc3O[C@H]21
GI50 (DLD-1): 36.1 µM (inactive) | GI50 (DMS-114): 19.5 µM (inactive) | GI50 (DMS-273): 40.6 µM (inactive) | GI50 (HOP-18): > 100 µM (inactive) | GI50 (KM-20L2): 33.9 µM (inactive) | GI50 (M19-MEL): 27 µM (inactive) | GI50 (RXF 631): 45.2 µM (inactive) | GI50 (SNB-78): 19.7 µM (inactive) | GI50 (XF498): 26.2 µM (inactive)

CC1(C)OC2OC(COC(=O)C(c3ccccc3)c3ccccc3)C3OC(C)(C)OC3C2O1 (centres undefined)
GI50 (DLD-1): 7.98 µM (inactive) | GI50 (DMS-114): 22.2 µM (inactive) | GI50 (DMS-273): 9.02 µM (inactive) | GI50 (HOP-18): > 10 µM (inactive) | GI50 (KM-20L2): 50.2 µM (inactive) | GI50 (M19-MEL): 66.7 µM (inactive) | GI50 (XF498): 14.7 µM (inactive)

Cn1nc(-c2ccccc2)c(C(=O)/C=C/c2ccccc2)c(N2CCCC2)c1=O
GI50 (DLD-1): 12.1 µM (inactive) | GI50 (DMS-114): 11.4 µM (inactive) | GI50 (DMS-273): 14.7 µM (inactive) | GI50 (HOP-18): 16.4 µM (inactive) | GI50 (KM-20L2): 14.5 µM (inactive) | GI50 (M19-MEL): 16.6 µM (inactive) | GI50 (RXF 631): 29 µM (inactive) | GI50 (XF498): 18.8 µM (inactive)

CCN(CC)CCn1nc2c3c(c(NCCN)ccc31)Sc1cc(O)ccc1-2
GI50 (DLD-1): 1.25 µM (inactive) | GI50 (DMS-114): 0.31 µM (active) | GI50 (DMS-273): 0.417 µM (active) | GI50 (HOP-18): 1.62 µM (inactive) | GI50 (M19-MEL): 0.347 µM (active) | GI50 (SNB-78): 0.877 µM (active) | GI50 (XF498): 0.128 µM (active)

O=C(NC1CCCCC1)NC12CC3CC(CC(F)(C3)C1)C2
GI50 (DLD-1): > 100 µM (inactive) | GI50 (DMS-114): > 100 µM (inactive) | GI50 (DMS-273): > 100 µM (inactive) | GI50 (KM-20L2): > 100 µM (inactive) | GI50 (M19-MEL): > 100 µM (inactive) | GI50 (RXF 631): > 100 µM (inactive) | GI50 (SNB-78): > 100 µM (inactive) | GI50 (XF498): > 100 µM (inactive)

CN(c1ccc(C(=O)c2ccc(N(C)S(C)(=O)=O)cc2)cc1)S(C)(=O)=O
GI50 (DLD-1): > 100 µM (inactive) | GI50 (DMS-114): 14.1 µM (inactive) | GI50 (KM-20L2): > 100 µM (inactive) | GI50 (M19-MEL): > 100 µM (inactive) | GI50 (SNB-78): > 100 µM (inactive)

c1ccc(C2N3CCCCC3[C@@H]3c4[nH]c5ccccc5c4CCN23)cc1 (some centres undefined)
GI50 (DLD-1): 54.1 µM (inactive) | GI50 (DMS-114): 38.7 µM (inactive) | GI50 (DMS-273): 50.7 µM (inactive) | GI50 (HOP-18): > 100 µM (inactive) | GI50 (KM-20L2): > 100 µM (inactive) | GI50 (M19-MEL): 58.2 µM (inactive) | GI50 (SNB-78): 47.5 µM (inactive) | GI50 (XF498): > 100 µM (inactive)

CCCCCCCCCCC(C)CCCCCCC(=O)OCC(COP(=O)([O-])OCC[N+](C)(C)C)OC(=O)CCCCCCC(C)CCCCCCCCCC (centres undefined)
GI50 (DLD-1): > 100 µM (inactive) | GI50 (DMS-114): > 100 µM (inactive) | GI50 (DMS-273): > 100 µM (inactive) | GI50 (HOP-18): > 100 µM (inactive) | GI50 (KM-20L2): > 100 µM (inactive) | GI50 (M19-MEL): > 100 µM (inactive) | GI50 (RXF 631): > 100 µM (inactive) | GI50 (SNB-78): > 100 µM (inactive)

COc1cc(=O)oc(/C=C/C=O)c1C
GI50 (DLD-1): 16 µM (inactive) | GI50 (DMS-114): 12.7 µM (inactive) | GI50 (DMS-273): 17.2 µM (inactive) | GI50 (HOP-18): 18 µM (inactive) | GI50 (KM-20L2): 16.8 µM (inactive) | GI50 (M19-MEL): 18.1 µM (inactive) | GI50 (RXF 631): 14.7 µM (inactive) | GI50 (SNB-78): > 10 µM (inactive) | GI50 (XF498): 17 µM (inactive)

Cc1c2c(cc3c1[nH]c1ccccc13)C(c1ccc(Cl)cc1)=NCC2
GI50 (DLD-1): 0.452 µM (active) | GI50 (DMS-114): 0.347 µM (active) | GI50 (DMS-273): 0.237 µM (active) | GI50 (HOP-18): 3.99 µM (inactive) | GI50 (KM-20L2): 0.301 µM (active) | GI50 (M19-MEL): 0.726 µM (active) | GI50 (SNB-78): 0.682 µM (active) | GI50 (XF498): 0.0973 µM (active)

Cn1c(=O)c2nc3sc4c(n3c2n(C)c1=O)C(=O)c1ccccc1C4=O
GI50 (DLD-1): > 100 µM (inactive) | GI50 (DMS-114): > 100 µM (inactive) | GI50 (DMS-273): > 100 µM (inactive) | GI50 (HOP-18): 0.433 µM (active) | GI50 (KM-20L2): > 100 µM (inactive) | GI50 (M19-MEL): > 86.7 µM (inactive) | GI50 (RXF 631): > 100 µM (inactive) | GI50 (SNB-78): > 100 µM (inactive) | GI50 (XF498): > 100 µM (inactive)

COc1ccc(C(=O)c2c3cc(OC)c(OC)c(OC)c3cc[n+]2C)cc1
GI50 (DLD-1): 17.1 µM (inactive) | GI50 (DMS-114): 23.7 µM (inactive) | GI50 (HOP-18): 20.6 µM (inactive) | GI50 (KM-20L2): 28.3 µM (inactive) | GI50 (M19-MEL): 24.1 µM (inactive) | GI50 (RXF 631): 37.4 µM (inactive) | GI50 (SNB-78): 38.5 µM (inactive) | GI50 (XF498): 15 µM (inactive)

Cc1c2cc[n+](C)cc2c(C)c2c1[nH]c1ccccc12
GI50 (DLD-1): 1.65 µM (inactive) | GI50 (DMS-114): 0.315 µM (active) | GI50 (DMS-273): 1.64 µM (inactive) | GI50 (HOP-18): 2.91 µM (inactive) | GI50 (M19-MEL): 0.718 µM (active) | GI50 (XF498): 0.608 µM (active)

COc1c(CC(C)O)c2c3c(CC(C)O)c(OC)c(=O)c4c(O)cc5c(c6c(cc(O)c(c1=O)c62)OCO5)c43 (centres undefined) [CERCOSPORIN]
GI50 (DLD-1): 1.96 µM (inactive) | GI50 (DMS-273): 0.906 µM (active) | GI50 (HOP-18): 2.58 µM (inactive) | GI50 (KM-20L2): 0.301 µM (active) | GI50 (M19-MEL): 0.664 µM (active) | GI50 (SNB-78): 2.15 µM (inactive)
